Source: patent US10703748B2, “Diazanaphthalen-3-yl carboxamides and preparation and use thereof” (Samumed, LLC, priority 2017, dated 2020)

Key:
[1] = biological target: GSK3β kinase (Homo sapiens, UniProt P49841); experiment: GSK3β kinase activity (Ser/Thr 09 peptide Z-lyte FRET assay); type: biochemical; settings: recombinant kinase, 46 μM ATP, one hour at room temperature; read-out: EC50
[2] = system: IL-6; experiment: IL-6 inhibition in LPS-stimulated human peripheral blood mononuclear cells (HTRF); settings: Homo sapiens, PBMC; for EC50: 22 h; for inhibition at 10 µM: read-out: percentage in parentheses after EC50 >10
[3] = system: α-smooth muscle actin (aSMA) positive LL29 cells; experiment: Inhibition of the fibrotic process: αSMA staining in TGF-β1 treated LL29 fibroblasts from IPF patients; settings: Homo sapiens, Fibroblast; for EC50: 96 h; for inhibition at 10 µM: read-out: percentage in parentheses after EC50 >10
[4] = system: SW480 colon carcinoma cells; experiment: Cell viability assay (CellTiter-Glo); settings: Homo sapiens; for EC50: SW480, 96 h; for inhibition at 10 µM: SW480, read-out: percent inhibition at 10 μM
Description: Representative compounds were screened using the assay procedure to assess the effect on cell viability as described below.
SW480 colon carcinoma cells were transduced with a lentiviral vector expressing luciferase with a human Sp5 promoter consisting of a sequence of eight TCF/LEF binding sites. […] These stably transduced SW480 cells were expanded in cell culture and used for all further screening activities. Each compound was dissolved in DMSO as a 10 mM stock and used to prepare compound source plates.
For the Cell Viability Assays, the cells were plated at 2,000 cells/well in 384-well plates with a DMEM medium containing 1% fetal bovine serum, and 1% Penicillin-Streptomycin and incubated for four days hours at 37° C. and 5% CO2. Eight replicates of DMSO-treated cells served as controls and cells treated with compound were performed in duplicate.
After incubation, 10 μL of CellTiter-Glo (Promega) was added to each well allowed to incubate for approximately 12 minutes. This reagent “results in cell lysis and generation of a luminescent signal proportional to the amount of ATP present. The amount of ATP is directly proportional to the number of cells present in culture, in agreement with previous reports. The CellTiter-Glo Assay generates a “glow-type” luminescent signal, produced by the luciferase reaction (Promega.com)”.
Dose-response curves were generated and EC50 concentration values were calculated using non-linear regression curve fit in the GraphPad Prism (San Diego, Calif.) or Dotmatics' Studies Software (Bishops Stortford, UK).

[5] = system: secreted cytokines TNFα, IL-6 and KC-GRO; experiment: Secreted cytokines in Lipopolysaccharide-stimulated BV-2 cells (Table 9 does not say which cytokine); type: cell-based, mouse; settings: Mus musculus, BV-2, 5 h; read-out: EC50
[6] = biological target: DYRK1A kinase (Homo sapiens, UniProt Q13627); experiment: DYRK1A kinase activity (Ser/Thr 18 peptide Z-lyte FRET assay); type: biochemical; settings: recombinant DYRK1A, 30 μM ATP, one hour at room temperature;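 further: kinase activity read as coumarin/fluorescein emission ratio after development step, with unphosphorylated and phosphorylated peptide forms setting 0% and 100% controls, values from dose-response curves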
[7] = system: Wnt-responsive Sp5-Luc reporter in SW480 colon carcinoma cells; experiment: Screening assay for Wnt activity (Sp5-Luc reporter gene assay); settings: Homo sapiens; for EC50: SW480; for inhibition at 10 µM: SW480, read-out: percent inhibition at 10 μM
[8] = system: Tau phosphorylation at Ser396 (pSer396); experiment: Tau phosphorylation at Ser396 (pSer396) in SH-SY5Y cells, ELISA / western blot; type: cell-based, human; settings: Homo sapiens; SH-SY5Y cells, overnight (16-18 h); read-out: pSer396 Tau EC50;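 further: decrease in pSer396 Tau measured in lysates of treated cells by colorimetric ELISA or chemiluminescent western blot, same pSer396 antibody for both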
Description: Two days before treatment, cells were seeded onto 96 well plates at 5×10^4 cells/well.
The above synthesized compounds were screened using the cell assay procedure to assess decrease Tau phosphorylation at Ser396 (pSer396) described below.
Cells were lysed with RIPA buffer complemented with phosphatase and protease inhibitors then lysates were spun down at 12,000 g for 10 min to remove any cellular debris.

Chain of GSK3β kinase (P49841 whole entry): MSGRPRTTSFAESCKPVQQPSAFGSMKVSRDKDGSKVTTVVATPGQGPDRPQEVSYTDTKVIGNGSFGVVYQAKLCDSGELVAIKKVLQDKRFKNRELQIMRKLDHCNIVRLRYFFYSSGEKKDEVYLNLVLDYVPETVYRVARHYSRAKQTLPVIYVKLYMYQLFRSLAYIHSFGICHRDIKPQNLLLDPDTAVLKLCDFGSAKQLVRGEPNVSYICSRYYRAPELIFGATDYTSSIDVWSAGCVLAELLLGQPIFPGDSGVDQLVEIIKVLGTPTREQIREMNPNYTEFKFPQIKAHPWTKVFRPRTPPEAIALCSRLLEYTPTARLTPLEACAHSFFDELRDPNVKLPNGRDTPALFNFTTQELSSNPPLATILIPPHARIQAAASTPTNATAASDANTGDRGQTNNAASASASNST

With CC(C(=O)Nc1cc2cc(-c3cncn3C)ncc2cn1)N1CCCC1 (stereo not shown) [Compound 4041, N-(6-(1-Methyl-1H-imidazol-5-yl)-2,7-naphthyridin-3-yl)-2-(pyrrolidin-1-yl) propanamide] the EC50 [1] was 19 nM, the EC50 [2] was > 10000 nM and the inhibition at 10 µM [2] was 0%. It also gave an EC50 [3] of 3490 nM, an EC50 [4] of 4540 nM and an EC50 [5] of 3900 nM. For the same compound, the EC50 [6] was 630 nM, the EC50 [7] was 291 nM and the EC50 [8] was 102 nM.

With Cn1cncc1-c1cc2cc(NC(=O)c3ccc4c(c3)CNC4)ncc2cn1 [Compound 4104, N-(6-(1-Methyl-1H-imidazol-5-yl)-2,7-naphthyridin-3-yl)isoindoline-5-carboxamide] the EC50 [1] was 145 nM, the EC50 [2] was > 10000 nM and the inhibition at 10 µM [2] was 5.7%. It also gave an EC50 [3] of 3080 nM, an EC50 [4] of 7750 nM and an EC50 [5] of 1200 nM. The EC50 [6] was 3 nM, the EC50 [7] was > 10000 nM and the inhibition at 10 µM [7] was 41.3%. It also gave an EC50 [8] of 10000 nM.

With O=C(Nc1cc2cc(-c3cnco3)ncc2cn1)C1CCN(C(=O)CN2CCCC2)CC1 [Compound 4159, N-(6-(Oxazol-5-yl)-2,7-naphthyridin-3-yl)-1-(2-(pyrrolidin-1-yl)acetyl) piperidine-4-carboxamide] the EC50 [1] was 72 nM, the EC50 [2] was > 10000 nM and the inhibition at 10 µM [2] was 10.1%. It also gave an EC50 [3] of 347 nM, an EC50 [4] of 8440 nM and an EC50 [5] of 859 nM. It also gave an EC50 [6] of 4 nM, an EC50 [7] of 972 nM and an EC50 [8] of 989 nM.

CN(C)[C@H]1CC[C@H](C(=O)Nc2cc3cc(-c4cncs4)ncc3cn2)CC1 [Compound 4239, trans-4-(dimethylamino)-N-(6-(thiazol-5-yl)-2,7-naphthyridin-3-yl) cyclohexane-1-carboxamide] was tested, and the EC50 [1] was 187 nM, the EC50 [2] was > 10000 nM and the inhibition at 10 µM [2] was 10.5%. For the same compound, the EC50 [3] was > 10000 nM, the inhibition at 10 µM [3] was 50% and the EC50 [4] was > 10000 nM. The inhibition at 10 µM [4] was 27.6%, the EC50 [5] was 1700 nM and the EC50 [6] was 5 nM. For the same compound, the EC50 [7] was > 10000 nM, the inhibition at 10 µM [7] was 41.9% and the EC50 [8] was 491 nM.

For CN1CCC(C(=O)Nc2cc3cc(-c4cnsc4)ncc3cn2)CC1 [Compound 4319, N-(6-(Isothiazol-4-yl)-2,7-naphthyridin-3-yl)-1-methylpiperidine-4-carboxamide], the EC50 [1] was 199 nM, the EC50 [2] was > 10000 nM and the inhibition at 10 µM [2] was 11.4%. For the same compound, the EC50 [3] was 1630 nM, the EC50 [4] was > 10000 nM and the inhibition at 10 µM [4] was 43%. The EC50 [5] was 516 nM, the EC50 [6] was 39 nM and the EC50 [7] was 1520 nM. It also gave an EC50 [8] of 553 nM.

With O=C(Nc1cc2cc(-c3cncc(NC4CCNCC4)n3)ncc2cn1)C1CCOCC1 [Compound 4504, N-(6-(6-(Piperidin-4-ylamino)pyrazin-2-yl)-2,7-naphthyridin-3-yl) tetrahydro-2H-pyran-4-carboxamide] the EC50 [1] was 77 nM, the EC50 [2] was > 10000 nM and the inhibition at 10 µM [2] was 7.3%. The EC50 [3] was 384 nM, the EC50 [4] was > 10000 nM and the inhibition at 10 µM [4] was 47.9%. It also gave an EC50 [5] of 524 nM, an EC50 [6] of 4 nM and an EC50 [7] of 3640 nM. It also gave an EC50 [8] of 10000 nM.

In the case of Cn1cc(-c2ccc3cnc(NC(=O)[C@H]4CC[C@H](NCCF)CC4)cc3n2)cn1 [Compound 4535, trans-4-((2-Fluoroethyl)amino)-N-(2-(1-methyl-1H-pyrazol-4-yl)-1,6-naphthyridin-7-yl) cyclohexane-1-carboxamide], the EC50 [1] is reported as 188 nM, the EC50 [2] is reported as 2860 nM and the EC50 [3] is reported as > 10000 nM. For the same compound, the inhibition at 10 µM [3] was 25%, the EC50 [4] was 4050 nM and the EC50 [5] was 162 nM. The EC50 [6] was 9 nM, the EC50 [7] was 346 nM and the EC50 [8] was 925 nM.

COCCN[C@H]1CC[C@H](C(=O)Nc2cc3nc(-c4cnn(C)c4)ccc3cn2)CC1 [Compound 4536, trans-4-((2-Methoxyethyl)amino)-N-(2-(1-methyl-1H-pyrazol-4-yl)-1,6-naphthyridin-7-yl) cyclohexane-1-carboxamide] gave an EC50 [1] of 319 nM, an EC50 [2] of 3020 nM and an EC50 [3] of 1140 nM. For the same compound, the EC50 [4] was > 10000 nM, the inhibition at 10 µM [4] was 45.9% and the EC50 [5] was 89 nM. For the same compound, the EC50 [6] was 14 nM, the EC50 [7] was 832 nM and the EC50 [8] was > 10000 nM.

Cc1ncc(-c2ccc3cnc(NC(=O)C(C)N4CCCC4)cc3n2)n1C (stereo not shown) [Compound 4544, N-(2-(1,2-Dimethyl-1H-imidazol-5-yl)-1,6-naphthyridin-7-yl)-2-(pyrrolidin-1-yl)propanamide] showed an EC50 [1] of 18 nM, an EC50 [2] of 7770 nM and an EC50 [3] of 1090 nM. For the same compound, the EC50 [4] was 5610 nM, the EC50 [5] was 353 nM and the EC50 [6] was 33 nM. The EC50 [7] was 59 nM and the EC50 [8] was 76 nM.

In the case of Cc1ncc(-c2ccc3cnc(NC(=O)[C@H]4CC[C@H](CO)CC4)cc3n2)s1 [Compound 4558, trans-4-(Hydroxymethyl)-N-(2-(2-methylthiazol-5-yl)-1,6-naphthyridin-7-yl) cyclohexane-1-carboxamide], the EC50 [1] is reported as 100 nM, the EC50 [2] is reported as 9230 nM and the EC50 [3] is reported as 277 nM. It also gave an EC50 [4] of 5800 nM, an EC50 [5] of 165 nM and an EC50 [6] of 4 nM. For the same compound, the EC50 [7] was 2800 nM and the EC50 [8] was 7000 nM.

Cc1ncc(-c2ccc3cnc(NC(=O)[C@H]4CC[C@H](N(C)C)CC4)cc3n2)s1 [Compound 4559, trans-4-(Dimethylamino)-N-(2-(2-methylthiazol-5-yl)-1,6-naphthyridin-7-yl) cyclohexane-1-carboxamide] showed an EC50 [1] of 110 nM, an EC50 [2] of 8500 nM and an EC50 [3] of 589 nM. For the same compound, the EC50 [4] was > 10000 nM, the inhibition at 10 µM [4] was 44.8% and the EC50 [5] was 411 nM. The EC50 [6] was 14 nM, the EC50 [7] was > 10000 nM and the inhibition at 10 µM [7] was 40.8%. It also gave an EC50 [8] of 2400 nM.

Cc1ncc(-c2ccc3cnc(NC(=O)C4CCN(C5COC5)CC4)cc3n2)s1 [Compound 4560, N-(2-(2-Methylthiazol-5-yl)-1,6-naphthyridin-7-yl)-1-(oxetan-3-yl) piperidine-4-carboxamide] was tested, and the EC50 [1] was 127 nM, the EC50 [2] was > 10000 nM and the inhibition at 10 µM [2] was 2.7%. For the same compound, the EC50 [3] was 779 nM, the EC50 [4] was > 10000 nM and the inhibition at 10 µM [4] was 37.5%. For the same compound, the EC50 [5] was 117 nM, the EC50 [6] was 14 nM and the EC50 [7] was > 10000 nM. The inhibition at 10 µM [7] was 49.7% and the EC50 [8] was 992 nM.

In the case of O=C(Nc1ncc2ccc(-c3cncs3)cc2n1)[C@H]1CC[C@H](CO)CC1 [Compound 4586, trans-4-(hydroxymethyl)-N-(7-(thiazol-5-yl)quinazolin-2-yl)cyclohexane-1-carboxamide], the EC50 [1] is reported as 336 nM, the EC50 [2] is reported as > 10000 nM and the inhibition at 10 µM [2] is reported as 4.8%. The EC50 [3] was 4440 nM, the EC50 [4] was > 10000 nM and the inhibition at 10 µM [4] was 25.1%. The EC50 [5] was 380 nM, the EC50 [6] was 2 nM and the EC50 [7] was > 10000 nM. The inhibition at 10 µM [7] was 29.6% and the EC50 [8] was 8800 nM.

For O=C(Nc1cc2cc(-c3cnco3)cnc2cn1)[C@H]1CC[C@H](CO)CC1 [Compound 4610], the EC50 [1] was > 10000 nM, the EC50 [2] was > 10000 nM and the inhibition at 10 µM [2] was 10.3%. For the same compound, the EC50 [3] was 4190 nM, the EC50 [4] was > 10000 nM and the inhibition at 10 µM [4] was 24.6%. For the same compound, the EC50 [5] was 261 nM, the EC50 [6] was 29 nM and the EC50 [7] was > 10000 nM. For the same compound, the inhibition at 10 µM [7] was 9.1% and the EC50 [8] was > 10000 nM.

In the case of CN(C)[C@H]1CC[C@H](C(=O)Nc2cc3cc(-c4cncs4)cnc3cn2)CC1 [Compound 4618], the EC50 [1] is reported as 3820 nM, the EC50 [2] is reported as > 10000 nM and the inhibition at 10 µM [2] is reported as 6.3%. The EC50 [3] was 4810 nM, the EC50 [4] was > 10000 nM and the inhibition at 10 µM [4] was 36.1%. For the same compound, the EC50 [5] was 108 nM, the EC50 [6] was 18 nM and the EC50 [7] was > 10000 nM. It also gave an inhibition at 10 µM [7] of 14.6% and an EC50 [8] of 1050 nM.
